Values of other authors as cited in patent US7713983B2 (priority 2003, dated 2010).

Legend:
NaV1.3 = NaV1.3 (Homo sapiens, UniProt Q9NY46); conditions: read-out: TTX IC50
neuropathic pain = conditions: in vivo

NaV1.3, sequence (Q9NY46 whole entry, looked up): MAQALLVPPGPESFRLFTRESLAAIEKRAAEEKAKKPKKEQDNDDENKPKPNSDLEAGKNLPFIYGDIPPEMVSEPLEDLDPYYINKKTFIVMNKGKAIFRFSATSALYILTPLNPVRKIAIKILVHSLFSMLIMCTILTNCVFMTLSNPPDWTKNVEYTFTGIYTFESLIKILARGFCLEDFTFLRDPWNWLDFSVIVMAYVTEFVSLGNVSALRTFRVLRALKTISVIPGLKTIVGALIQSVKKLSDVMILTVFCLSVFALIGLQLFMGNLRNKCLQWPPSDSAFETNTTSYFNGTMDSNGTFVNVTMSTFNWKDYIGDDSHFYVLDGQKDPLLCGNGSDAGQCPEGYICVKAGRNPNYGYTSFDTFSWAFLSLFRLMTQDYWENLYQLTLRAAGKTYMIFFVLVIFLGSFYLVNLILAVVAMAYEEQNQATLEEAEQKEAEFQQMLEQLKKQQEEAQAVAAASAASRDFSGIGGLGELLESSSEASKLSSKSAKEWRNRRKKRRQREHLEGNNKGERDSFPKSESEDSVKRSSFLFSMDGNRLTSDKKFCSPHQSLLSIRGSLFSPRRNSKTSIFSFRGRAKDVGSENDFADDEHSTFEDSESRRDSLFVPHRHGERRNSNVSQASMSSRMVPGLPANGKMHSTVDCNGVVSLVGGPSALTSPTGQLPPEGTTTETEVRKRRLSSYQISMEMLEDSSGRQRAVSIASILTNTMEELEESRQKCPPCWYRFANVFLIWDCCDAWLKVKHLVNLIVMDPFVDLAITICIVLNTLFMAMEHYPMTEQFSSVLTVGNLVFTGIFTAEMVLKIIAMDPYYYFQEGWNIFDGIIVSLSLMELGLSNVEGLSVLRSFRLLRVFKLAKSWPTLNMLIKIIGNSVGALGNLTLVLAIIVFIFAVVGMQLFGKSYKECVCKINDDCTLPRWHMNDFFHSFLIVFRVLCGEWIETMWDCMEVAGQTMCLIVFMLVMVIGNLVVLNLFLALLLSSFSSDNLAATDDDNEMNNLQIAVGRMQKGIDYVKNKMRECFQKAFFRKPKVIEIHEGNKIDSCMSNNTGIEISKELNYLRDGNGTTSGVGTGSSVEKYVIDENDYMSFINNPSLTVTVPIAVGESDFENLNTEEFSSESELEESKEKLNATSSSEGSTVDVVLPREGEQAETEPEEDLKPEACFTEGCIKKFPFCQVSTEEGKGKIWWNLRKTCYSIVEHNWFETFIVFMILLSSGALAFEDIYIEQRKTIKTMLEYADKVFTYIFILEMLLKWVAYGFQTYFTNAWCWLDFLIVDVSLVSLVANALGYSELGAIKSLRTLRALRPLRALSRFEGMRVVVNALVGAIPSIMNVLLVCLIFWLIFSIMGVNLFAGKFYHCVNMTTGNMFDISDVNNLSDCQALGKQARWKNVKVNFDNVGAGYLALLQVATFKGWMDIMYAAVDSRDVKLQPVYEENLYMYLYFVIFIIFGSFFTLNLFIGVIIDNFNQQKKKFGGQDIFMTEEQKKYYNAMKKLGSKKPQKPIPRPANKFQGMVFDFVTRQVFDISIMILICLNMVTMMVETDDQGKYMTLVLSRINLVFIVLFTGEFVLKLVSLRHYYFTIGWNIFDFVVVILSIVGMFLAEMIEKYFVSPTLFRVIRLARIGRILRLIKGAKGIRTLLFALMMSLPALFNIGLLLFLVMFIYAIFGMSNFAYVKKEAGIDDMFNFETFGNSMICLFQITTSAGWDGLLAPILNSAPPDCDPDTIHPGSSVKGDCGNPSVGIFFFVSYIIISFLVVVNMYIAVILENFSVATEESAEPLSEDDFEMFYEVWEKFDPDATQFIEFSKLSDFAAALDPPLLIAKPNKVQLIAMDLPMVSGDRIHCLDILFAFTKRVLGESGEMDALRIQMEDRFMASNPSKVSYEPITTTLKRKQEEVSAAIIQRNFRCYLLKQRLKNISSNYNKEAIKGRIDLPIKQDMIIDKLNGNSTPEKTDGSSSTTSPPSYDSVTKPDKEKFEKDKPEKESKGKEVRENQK

NC1=N[C@H](O)[C@H]2[C@H]3O[C@]4(O)O[C@@H]([C@@H](O)[C@@]2(N1)[C@@H]4O)[C@]3(O)CO [TTX, tetrodotoxin]
IC50 (NaV1.3): 0.015 µM

NCC1(CC(=O)O)CCCCC1 [Gabapentin]
share of patients in whom it works (neuropathic pain): 60%
